In test [1] the test system is BMDMs. Nature of the test: Nitric oxide production of pre-stained macrophages polarised to M1 phenotype (Griess test). Type of test: cell-based, mouse. Particulars: after 2 days activation with IFNγ and PAM3SCK4; 5-50 μM 6e. How it is done: The impact of SP compound 6e on the BMDMs’ functional characteristics was also assessed by performing cell differentiation into the M1 phenotype in the presence of compound 6e. The BMDMs were treated with 5–50 μM compound 6e and the cell medium was replaced with a macrophage differentiation medium containing recombinant mouse interferon-gamma (IFNγ) and the TLR2/1 ligand PAM3SCK4 to ensure M1 polarisation. Activated cells express proinflammatory molecules (cytokines and chemokines), as well as nitric oxide (NO) as the main features of their proinflammatory M1-like macrophage phenotype. To verify the NO level in cell culture media, nitrites, as nitric oxide oxidation products, were measured by the standard Griess test. […]
For polarisation of macrophages to the pro-inflammatory M1 phenotype, the BMDM cells stained in a 12-well plate were used. […] After two days of activation, the nitric oxide levels (as a main signal of M1 polarisation) were measured in cell supernatants of activated (M1) and non-activated (M0) cells. The amount of nitric oxide was determined via a nitric oxide assay kit (Cat. No. EMSNO; Invitrogen). Briefly, 50 µL of cell culture media was collected from each well, clarified by centrifugation, and used for NO quantification. The nitrite standards provided by the kit were used for standard curve generation and NO quantification. […]
In general terms: The Griess reaction detects nitrite, a stable product of nitric oxide.

Test [2] relates to murine bone-marrow-derived macrophages (BMDMs). Nature of the test: cells. The following applies: Mus musculus, BMDM, 24 h, read-out: IC50 (BMDM viability).
Experimental: In this study, we used murine bone-marrow-derived macrophages (BMDMs) to evaluate the staining potential of the 6e compound in primary immune cells. […] To assess toxicity, the BMDMs were stained with various concentrations (0.1–100 μM) of compound 6e, and after 24 h, cell viability was measured using the CCK-8 assay (Figure 5).
To determine the cytotoxicity of the SP compound 6e, the cells were stained with various concentrations of the dye (0, 0.1, 1, 5, 10, and 100 μM). Briefly, 2 × 10^4 cells were plated in a 96-well plate in 100 μL of the medium. After 24 h, the cells were washed once and a solution of compound 6e in PBS was added to the cells. The cells were incubated in a humidified 5% CO2 incubator at 37 °C for 15–20 min. Then, the dye solution was replaced with medium. […] After 24 h, the medium was replaced with 10 μL of CCK-8 reagent in 100 μL of fresh medium. The cells were incubated in a humidified 5% CO2 incubator at 37 °C for 1–4 h. The absorbance at 450 nm was measured using a microplate spectrophotometer (BioTek Instruments, Winooski, VT, USA). Cell viability was calculated as a percentage of non-treated cell absorbance. IC50 values were calculated as the concentration at which 50% of the cells were viable.

On to `CCCCCCCCCCCCCCCC[n+]1ccc(C=CC=Cc2cc3c4c(c2)CCCN4CCC3)cc1.[Br-]` [Compound 6e, 1-hexadecyl-4-(4-(2,3,6,7-tetrahydro-1H,5H-pyrido[3,2,1-ij]quinolin-9-yl)buta-1,3-dien-1-yl)pyridin-1-ium bromide], for which the “NO production of stained BMDMs” value in test [1] is on record as “up to 21.5 µM”. Also, the IC50 (as a rule, the point on the concentration scale where inhibition reaches its midpoint) in test [2] was found to be 9.2 ± 1.5 µM.

The values above are taken from article PMC10535741, “Styrylpyridinium Derivatives for Fluorescent Cell Imaging” (Pharmaceuticals, 2023).
